{"source": "patent US12590965B2", "about": "“Palmitoyl protein biomarkers in purified extracellular vesicles for early identification of clinically significant prostate cancer” (priority 2012, dated 2026)", "key": {"[1]": {"system": "palmitoylation in PC3 cells", "experiment": "Immunoblot of protein abundance in PC3 L- and S-EVs after inhibition of palmitoylation", "format": "cell-based", "method": "(§1) The PC3 cell line was obtained from the American Type Culture Collection (ATCC). The DU145DIAPH3-KD cell line, stably transfected with DIAPH3 shRNA, was generated in our laboratories. PC3 and DU145DIAPH3-KD cell lines were cultured in DMEM (Invitrogen). All cells were supplemented with 10% foetal bovine serum (Denville Scientific), 2 mM L-glutamine (Invitrogen) and 1% PenStrep (Invitrogen). DU145DIAPH3-KD cells were additionally selected with 2 μg/mL puromycin as described. All cells were grown at 37° C. and 5% CO2. Cell viability of the EV-producer cells was tested with the 0.4% Trypan Blue (Sigma) exclusion method. All cell lines were routinely tested for mycoplasma contamination by using the MycoAlert PLUS Mycoplasma Detection Kit (Lonza). Finally, in order to collect EVs from cells in which palmitoylation was inhibited, PC3 cells were treated for 24 hours with 2-bromohexadecanoic acid (Sigma), also known as 2-bromopalmitate (0.5, 1, 5, 10, 20, 50 and 100 μM), in serum-starvation.\nThe isolation of EVs was conducted as previously described with minor modifications (Vagner et al. Large extracellular vesicles carry most of the tumour DNA circulating in prostate cancer patient plasma. J Extracell Vesicles. 2018; 7(1):1505403; Minciacchi et al. Large oncosomes contain distinct protein cargo and represent a separate functional class of tumor-derived extracellular vesicles. Oncotarget. 2015; 6(13):11327-11341; Minciacchi et al. MYC mediates large oncosome-induced fibroblast reprogramming in prostate cancer. Cancer Res. 2017; 77(9):2306-2317). Cells were grown on 18×150 cm^2-cell culture plates (Corning) until 90% confluence, washed in PBS and serum-starved for 24 hours before the collection of conditioned cell media. The conditioned media was cleared by differential centrifugation of floating cells at 300 g, of cell debris at 2,800 g for 10 min, and spun in an ultracentrifuge at 10,000 g for 30 min (4° C., k-factor 2547.2) for the collection of L-EVs. The supernatant was then spun at 100,000 g for 60 min (4° C., k-factor 254.7) for the collection of S-EVs. Both 10,000 g and 100,000 g pellets were then subjected to Optiprep™ (Sigma) density gradient purification. Fresh pelleted EVs were resuspended in 0.2 μm-filtered PBS and deposited at the bottom of an ultracentrifuge tube. […]\nImmunoblotting analysis was performed as described (Zhou et al. Low-background Acyl-biotinyl exchange largely eliminates the co-isolation of non-S-Acylated proteins and enables deep S-Acylproteomic analysis. Anal Chem. 2019; 91(15):9858-9866). […] Densitometric quantification of films was performed with the ImageJ software (v1.52a). […]"}, "PC3 cells": {"system": "PC3 cells", "experiment": "Titration of 2-bromopalmitate to a non-toxic concentration in PC3 cells", "format": "cell-based", "conditions": "24 hours, serum-starvation", "method": "as §1\nFinally, we investigated if palmitoylation had any influence on the localization of select proteins in EVs. To do so, we titrated the concentration of 2-bromopalmitate (2-BP), a general inhibitor of palmitoylation, to a non-toxic concentration of 10 μM in PC3 cells (data not shown) in order to avoid any alterations in the EV shedding (FIG. 18(d)) and recovery of EV-protein (FIG. 18(e)). […]"}, "[2]": {"conditions": "10 μM 2-BP for 24 h, PC3 L- and S-EVs"}}, "note": "“Also recorded” adds a separate entry of the source.", "data": [{"compound": "CCCCCCCCCCCCCCC(Br)C(=O)O", "note": "(centres unmarked) [2-BP, 2-bromohexadecanoic acid]", "values": [{"measurement": "ABCC4 in EVs", "setting": "[1]; [2]", "value": "decrease; also recorded: reduced"}, {"measurement": "STEAP1 in EVs", "setting": "[1]; [2]", "value": "decrease"}, {"measurement": "STEAP2 in EVs", "setting": "[1]; [2]", "value": "decrease; also recorded: reduced"}, {"measurement": "Cav-1 levels in EVs", "setting": "[1]; 10 μM 2-BP, PC3 EVs", "value": "did not change; also recorded: did not alter the localization"}, {"measurement": "non-toxic concentration", "setting": "PC3 cells", "value": 10, "unit": "µM"}]}]}
